In patent US6391339B1, “Use of oligosaccharide for preventing blood clotting in extracorporeal blood circuits” (Akzo Nobel N.V., priority 1997, dated 2002):

Tested on: patients undergoing chronic intermittent haemodialysis
Details: 12 haemodialysis patients; half an hour before the end of the last dialysis
Procedure: The study consisted of 2 phases (block A and block B). In block A, 10 mg of Org 31540/SR 90107 A was administered. Thereafter, in block B, 8, 6, and 4 mg of Org 31540/SR 90107 A were used.
Medication was given as an intravenous bolus predialysis for 1 dialysis each week. Efficacy was assessed by determining patency of the dialyzer, buffer and bubble chamber, every hour during dialysis by visual examination and by blood sampling of specific coagualtion, heamatologic and biochemical parameters. Anti-Xa plasma samples, to determine pharmacokinetics, were taken every hour during dialysis and 1 hour after dialysis and daily for 3 days post-dialysis. Safety was assessed by evaluating major and minor bleeding complications each dialysis.

Structure (SMILES): CO[C@H]1O[C@H](COS(=O)(=O)O)[C@@H](O[C@@H]2O[C@@H](C(=O)O)[C@@H](O[C@H]3O[C@H](COS(=O)(=O)O)[C@@H](O[C@@H]4O[C@H](C(=O)O)[C@@H](O[C@H]5O[C@H](COS(=O)(=O)O)[C@@H](O)[C@H](O)[C@H]5NS(=O)(=O)O)[C@H](O)[C@H]4O)[C@H](OS(=O)(=O)O)[C@H]3NS(=O)(=O)O)[C@H](O)[C@H]2OS(=O)(=O)O)[C@H](O)[C@H]1NS(=O)(=O)O [Org 31540/SR 90107 A, methyl O—(2-deoxy-2-sulphoamino-6-O-suplho-α-D-glucopyranosyl)-(1→4)—O—(β-D-glucopyranosyluronic acid)-(1→4)—O—(2-deoxy-2-sulphoamino-3,6-di-O-sulpho-α-D-glucopyranosyl)-(1→4)—O—(2-O-sulpho-α-L-idopyranosyluronic acid)-(1→4)-2-deoxy-2-sulphoamino-6-O-sulpho-α-D-glucopyranoside]
- clot in the buffer chamber making dialysis impossible: Only in one patient
